Literature values in patent US20030232369A1, “Molecular structure of RNA polymerase II” (priority 2002, published 2003).

How the values were obtained:
pol II [1] = conditions: relative to α-amanitin
pol II [2] = tested on: pol II

Molecule	reduction of inhibition (fold less inhibitory than α-amanitin) (pol II [1])	effect on transcription (pol II [2])	influence of α-amanitin binding on the affinity of pol II for nucleoside triphosphates (pol II [2])	rate of translocation of pol II on DNA (pol II [2]; after addition of α-amanitin to a transcribing pol II complex)
CCC(C)C1NC(=O)CNC(=O)C2Cc3c([nH]c4cc(O)ccc34)[S+]([O-])CC(NC(=O)CNC1=O)C(=O)NC(CC(N)=O)C(=O)N1CC(O)CC1C(=O)NC(C(C)CC)C(=O)N2 (centres unmarked) [amanullin]	about 4 fold			
CC[C@H](C)[C@@H]1NC(=O)CNC(=O)[C@@H]2Cc3c([nH]c4cc(O)ccc34)[S+]([O-])C[C@@H](NC(=O)CNC1=O)C(=O)N[C@@H](CC(N)=O)C(=O)N1C[C@H](O)C[C@H]1C(=O)N[C@@H]([C@@H](C)[C@@H](O)CO)C(=O)N2 (stereo in doubt) [α-amanitin]		blocks both transcription initiation and elongation	little if any influence	reduced from several thousand to only a few
proamanullin	about 20,000 fold			
